# Target: CD73 (Homo sapiens (Human), UniProt P21589)
# Assay: Biochemical Assay (CD73 inhibition, AMP hydrolysis, Malachite Green readout)
# Conditions: CD73 0.3208 nM, AMP 15 μM, Tris-HCl pH 7.4, Malachite Green absorbance
# Chain of CD73 (P21589 27-574): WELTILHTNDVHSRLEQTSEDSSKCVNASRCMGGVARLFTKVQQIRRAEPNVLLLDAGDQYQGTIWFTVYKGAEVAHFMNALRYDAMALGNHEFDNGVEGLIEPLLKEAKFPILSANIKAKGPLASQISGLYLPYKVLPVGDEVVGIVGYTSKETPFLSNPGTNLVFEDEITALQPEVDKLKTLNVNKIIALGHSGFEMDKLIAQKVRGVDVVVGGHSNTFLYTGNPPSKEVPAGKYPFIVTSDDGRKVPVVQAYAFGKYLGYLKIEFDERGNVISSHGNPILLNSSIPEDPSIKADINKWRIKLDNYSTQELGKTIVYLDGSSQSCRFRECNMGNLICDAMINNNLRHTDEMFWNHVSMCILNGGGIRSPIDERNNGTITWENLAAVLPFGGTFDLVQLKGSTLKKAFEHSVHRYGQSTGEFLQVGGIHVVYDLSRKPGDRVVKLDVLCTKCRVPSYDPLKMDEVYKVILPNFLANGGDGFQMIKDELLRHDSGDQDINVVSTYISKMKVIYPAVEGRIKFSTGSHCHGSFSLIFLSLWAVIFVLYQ
row,IC50 [nM],Compound
1,≤ 500,"O=P(O)(O)COC[C@H]1O[C@@H](n2ncc3c(NCc4ccccc4Cl)nc(CO)nc32)[C@H](O)[C@@H]1O [Example 17, ((((2R,3S,4R,5R)-5-(4-((2-Chlorobenzyl)amino)-6-(hydroxymethyl)-1H-pyrazolo[3,4-d]pyrimidin-1-yl)-3,4-dihydroxytetrahydrofuran-2-yl)methoxy)methyl)phosphonic acid]"
2,500 to 1000,"CN(c1nc(Cl)nc2c1cnn2[C@@H]1O[C@H](COC(=O)CP(=O)(O)O)[C@@H](O)[C@H]1O)[C@H]1CCc2ccccc21 [Example 8, (2-(((2R,3S,4R,5R)-5-(6-Chloro-4-(((S)-2,3-dihydro-1H-inden-1-yl)(methyl)amino)-1H-pyrazolo[3,4-d]pyrimidin-1-yl)-3,4-dihydroxytetrahydrofuran-2-yl)methoxy)-2-oxoethyl)phosphonic acid]"
3,≤ 500,"O=P(O)(O)CS(=O)(=O)C[C@H]1O[C@@H](n2ncc3c(NCc4ccc(F)cc4)nc(Cl)nc32)[C@H](O)[C@@H]1O [Example 117, (((((2S,3S,4R,5R)-5-(6-chloro-4-((4-fluorobenzyl)amino)-1H-pyrazolo[3,4-d]pyrimidin-1-yl)-3,4-dihydroxytetrahydrofuran-2-yl)methyl)sulfonyl)methyl)phosphonic acid]"
4,≤ 500,"O=P(O)(O)COC[C@H]1O[C@@H](n2ncc3c(N4CCC4)nc(Cl)nc32)[C@H](O)[C@@H]1O [Example 83, ((((2R,3S,4R,5R)-5-(4-(azetidin-1-yl)-6-chloro-1H-pyrazolo[3,4-d]pyrimidin-1-yl)-3,4-dihydroxytetrahydrofuran-2-yl)methoxy)methyl)phosphonic acid]"
5,> 1000,"CC(C)CNc1nc(NCc2cccc(Cl)c2)c2cnn([C@@H]3O[C@H](COCP(=O)(O)O)[C@@H](O)[C@H]3O)c2n1 [Example 67, ((((2R,3S,4R,5R)-5-(4-((3-chlorobenzyl)amino)-6-(isobutylamino)-1H-pyrazolo[3,4-d]pyrimidin-1-yl)-3,4-dihydroxytetrahydrofuran-2-yl)methoxy)methyl)phosphonic acid]"
6,≤ 500,"O=P(O)(O)COC[C@H]1O[C@@H](n2ncc3c(NC4CC(F)(F)C4)nc(Cl)nc32)[C@H](O)[C@@H]1O [Example 87, ((((2R,3S,4R,5R)-5-(6-chloro-4-((3,3-difluorocyclobutyl)amino)-1H-pyrazolo[3,4-d]pyrimidin-1-yl)-3,4-dihydroxytetrahydrofuran-2-yl)methoxy)methyl)phosphonic acid]"
7,≤ 500,"O=P(O)(O)CS(=O)(=O)C[C@H]1O[C@@H](n2ncc3c(NC4CCCC4)nc(CO)nc32)[C@H](O)[C@@H]1O [Example 125, (((((2S,3S,4R,5R)-5-(4-(cyclopentylamino)-6-(hydroxymethyl)-1H-pyrazolo[3,4-d]pyrimidin-1-yl)-3,4-dihydroxytetrahydrofuran-2-yl)methyl)sulfonyl)methyl)phosphonic acid]"
8,> 1000,"CN(Cc1ccccc1)c1nc(Cl)nc2c1cnn2[C@H]1O[C@H](COCCP(=O)(O)O)[C@@H](O)[C@H]1O [Example 6, (2-(((2R,3S,4R,5S)-5-(4-(Benzyl(methyl)amino)-6-chloro-1H-pyrazolo[3,4-d]pyrimidin-1-yl)-3,4-dihydroxytetrahydrofuran-2-yl)methoxy)ethyl)phosphonic acid]"
9,≤ 500,"O=P(O)(O)COC[C@H]1O[C@@H](n2ncc3c(NCc4ccccc4Cl)nc(Cl)nc32)[C@H](O)[C@@H]1O [Example 10, ((((2R,3S,4R,5R)-5-(6-chloro-4-((2-chlorobenzyl)amino)-1H-pyrazolo[3,4-d]pyrimidin-1-yl)-3,4-dihydroxytetrahydrofuran-2-yl)methoxy)methyl)phosphonic acid]"
10,> 1000,"Cc1nc(NCc2cccc(Cl)c2)c2cnn([C@@H]3O[C@H](COCP(=O)(O)O)[C@@H](O)[C@H]3O)c2n1 [Example 44, ((((2R,3S,4R,5R)-5-(4-((3-chlorobenzyl)amino)-6-methyl-1H-pyrazolo[3,4-d]pyrimidin-1-yl)-3,4-dihydroxytetrahydrofuran-2-yl)methoxy)methyl)phosphonic acid]"

# Source: patent US11377469B2, “CD73 inhibitors” (ORIC Pharmaceuticals, Inc., priority 2017, dated 2022)
